Experimental data as given in patent EP0933027A1, “Methods and compositions for protecting animals and humans against attack and infestation by arthropod and helminth parasites” (American Cyanamid Company, priority 1998, dated 1999).
Read-outs that look alike come from different tables or passages of the source.

Tests used:
[1] = test system: ovine Trichstrongylus colubriformis larvae; assay: Systemic activity against helminth larvae in infected Mongolian gerbils (medicated diet); type: in vivo; conditions: 500 ppm in feed; medicated diet for 3 days from ten days post infection; nematode burdens treated versus non-treated
Description: This test is designed to evaluate the systemic activity of test compounds against helminth parasites. Mongolian gerbils are infected orally with ovine Trichstrongylus colubrifomis larvae. Ten days post infection, the gerbils are treated with test compounds by diet incorporation. After feeding on the medicated diet for 3 days, the gerbils are sacrificed and gastrointestinal nematode populations are counted. Efficacy is determined by statistical analyses of treated versus non-treated nematode burdens.

Ctenocephalides felis = assay: Contact activity against adult cat flea, with and without piperonyl butoxide
Description: This test is designed to evaluate the contact activity of test compounds against the adult cat flea. Test compounds are dissolved in 100% acetone to 300, 100, 10 and 1 ppm. 100 µL of each of these dilutions is added to the bottom of a 20 mL glass scintillation vial with a pipettor. The vial is allowed to dry under a fume hood for 15 minutes. The bottom of the vial measures 4.909 cm^2. The amount of test compound applied by each dilution equals 6.2, 2.0, 0.2 and 0.02 µg/cm^2, respectively. Newly emerged adult cat fleas are anesthetized with CO2 to immobilize, and are counted into the scintillation vials with forceps. Five fleas are placed in each vial. These tests are done in replicates of two or three so that there are 10 to 15 fleas per rate/compound. Mortality readings are taken 4 and 24 hours after placing the fleas in the vials. […] Percent mortality is then calculated for each treatment.
This test evaluates the synergistic effect of piperonyl butoxide on the formula I compounds of this invention. Piperonyl butoxide (PBO) is added in an amount of 1.5% to a 1,000 ppm solution of a test compound in acetone. Dilutions are then made with acetone to provide solutions containing 300, 100, 10 and 1 ppm of the test compound and 0.45%, 0.15%, 0.015% and 0.0015% piperonyl butoxide, respectively. Solutions containing 1,000, 300, 100, 10 and 1 ppm of the test compound alone are used as the control. The evaluations are conducted according to the procedure described in Example 1.

[2] = test system: Pyrethroid-resistant horn fly (Haematobia irritans); assay: Treated filter paper test against adult pyrethroid-resistant horn fly; conditions: corrected for control mortality
Description: (§1) Test doses are expressed as µg of test substance per cm^2 of filter paper. • 1) Prepare solutions of test compound in acetone such that 800 or 1000 µL contains the amount necessary to obtain the desired dose rate. • 2) Pipette 800 or 1000 µL of test solution onto filter paper. • 3) Filter papers are dried under a fume hood. • 4) When dry, filter papers are placed in the petri dish tops. Dishes are generally held about 24 hours before test organism is added. • 5) Two- to five-day-old horn flies (pyrethroid-susceptible or -resistant) which have had two or more blood meals are used in the assay. Flies are collected into a small vial from the holding cage. Vials are then chilled in a freezer for about 4 minutes to immobilize the flies. Immobilized flies are then distributed to petri dish bottoms, 12 to 25 flies per dish, then dishes are closed and inverted. • 6) As soon as the flies become mobile (about 5 minutes), they are examined to detect any flies that are dead or injured. This number is subtracted from total number of flies in the dish. • 7) Petri dishes are held at room temperature and examined at the desired time intervals which might be 10 minutes to 6 hours. • 8) All dead flies are recorded at each examination time. […] 10) Percent mortality at any time period is calculated using the following formula: (Number of dead flies - number dead @ 5 min)/(Total number of flies - number dead @ 5 min)x 100 [formula] Percent mortality is then corrected for control mortality using Abbot's formula.

[3] = test system: Pyrethroid-susceptible horn fly (Haematobia irritans); assay: Treated filter paper test against adult pyrethroid-susceptible horn fly; conditions: corrected for control mortality
Description: as §1

Dermacentor variabilis = assay: Contact activity against larval American dog tick (coated vial)
Description: This test is designed to evaluate the contact activity of test compounds against the American dog tick. Test compounds are dissolved in 100% acetone to 1000, 300, 100, 10, 1 and 0.1 ppm. 100 µL of each of these dilutions is added to the bottom of a 20 mL glass scintillation vial with a pipettor. The vial is allowed to dry under a fume hood for 15 minutes. The vial is then turned in its side, and 250 µL of each dilution is applied to the sides of the vial. The vial is placed on a rolling machine and allowed to roll under the hood, coating the sides of the vial, until the acetone completely evaporates. The bottom of the vial measures 4.909 cm^2 and the sides measure 4.5 cm high x 8.8 cm around, so that the total coated area of the scintillation vial measures 44.51 cm^2. The amount of test compound applied by each dilution equals 7.86, 2.36, 0.79, 0.079, 0.0079 and 0.00079 µg/cm^2, respectively. Unfed larval dog ticks are counted into the scintillation vials with a slightly damp paintbrush. Ten ticks are placed in each vial. These tests are done in replicates of two or three so that there are 20 to 30 ticks per rate/compound. Mortality readings are taken 4 and 24 hours after placing the ticks in the vials. To read the test, the vial is placed under a magnifying glass and tapped gently. […] Percent mortality is then calculated for each treatment.

[4] = 4 h, read-out: 4 Hour % Mortality
[5] = 24 h, read-out: 24 Hour % Mortality

## F/C(=C\Cc1ccc(F)c(Oc2ccccc2)c1)C(c1ccc(Cl)cc1)C1CC1 (centres unmarked) [Compound 5, 1-[1-(p-Chlorophenyl)-2-fluoro-4-(4-fluoro-3-phenoxyphenyl)-2-butenyl]cyclopropane, (Z)-]
[1]
  % Efficacy: 46%
Ctenocephalides felis; 4 h, dose 0.02 µg/cm^2, 0.0 % PBO (test compound alone), 4 hours, read-out: 4 Hour % Mortality
  mortality at 0.02 µg/cm2: 0%
Ctenocephalides felis; 4 h, dose 0.02 µg/cm^2, 0.0015 % PBO in composition, 4 hours, read-out: 4 Hour % Mortality
  mortality at 0.02 µg/cm2: 0%
Ctenocephalides felis; 4 h, dose 0.2 µg/cm^2, 0.0 % PBO (test compound alone), 4 hours, read-out: 4 Hour % Mortality
  mortality at 0.2 µg/cm2: 20%
Ctenocephalides felis; 4 h, dose 0.2 µg/cm^2, 0.015 % PBO in composition, 4 hours, read-out: 4 Hour % Mortality
  mortality at 0.2 µg/cm2: 40%
Ctenocephalides felis; 4 h, dose 2.0 µg/cm^2, 0.0 % PBO (test compound alone), 4 hours, read-out: 4 Hour % Mortality
  mortality at 2 µg/cm2: 30%
Ctenocephalides felis; 4 h, dose 2.0 µg/cm^2, 0.15 % PBO in composition, 4 hours, read-out: 4 Hour % Mortality
  mortality at 2 µg/cm2: 20%
Ctenocephalides felis; 4 h, dose 6.2 µg/cm^2, 0.0 % PBO (test compound alone), 4 hours, read-out: 4 Hour % Mortality
  mortality at 6.2 µg/cm2: 30%
Ctenocephalides felis; 4 h, dose 6.2 µg/cm^2, 0.45 % PBO in composition, 4 hours, read-out: 4 Hour % Mortality
  mortality at 6.2 µg/cm2: 20%
Ctenocephalides felis; 4 h, dose 20.0 µg/cm^2, 0.0 % PBO (test compound alone), 4 hours, read-out: 4 Hour % Mortality
  mortality at 20 µg/cm2: 100%
Ctenocephalides felis; 4 h, dose 20.0 µg/cm^2, 1.50 % PBO in composition, 4 hours, read-out: 4 Hour % Mortality
  mortality at 20 µg/cm2: 100%
Ctenocephalides felis; 24 h, dose 0.02 µg/cm^2, 0.0 % PBO (test compound alone), 24 hours, read-out: 24 Hour % Mortality
  mortality at 0.02 µg/cm2: 10%
Ctenocephalides felis; 24 h, dose 0.02 µg/cm^2, 0.0015 % PBO in composition, 24 hours, read-out: 24 Hour % Mortality
  mortality at 0.02 µg/cm2: 70%
Ctenocephalides felis; 24 h, dose 0.2 µg/cm^2, 0.0 % PBO (test compound alone), 24 hours, read-out: 24 Hour % Mortality
  mortality at 0.2 µg/cm2: 20%
Ctenocephalides felis; 24 h, dose 0.2 µg/cm^2, 0.015 % PBO in composition, 24 hours, read-out: 24 Hour % Mortality
  mortality at 0.2 µg/cm2: 100%
Ctenocephalides felis; 24 h, dose 2.0 µg/cm^2, 0.0 % PBO (test compound alone), 24 hours, read-out: 24 Hour % Mortality
  mortality at 2 µg/cm2: 100%
Ctenocephalides felis; 24 h, dose 2.0 µg/cm^2, 0.15 % PBO in composition, 24 hours, read-out: 24 Hour % Mortality
  mortality at 2 µg/cm2: 100%
Ctenocephalides felis; 24 h, dose 6.2 µg/cm^2, 0.0 % PBO (test compound alone), 24 hours, read-out: 24 Hour % Mortality
  mortality at 6.2 µg/cm2: 100%
Ctenocephalides felis; 24 h, dose 6.2 µg/cm^2, 0.45 % PBO in composition, 24 hours, read-out: 24 Hour % Mortality
  mortality at 6.2 µg/cm2: 100%
Ctenocephalides felis; 24 h, dose 20.0 µg/cm^2, 0.0 % PBO (test compound alone), 24 hours, read-out: 24 Hour % Mortality
  mortality at 20 µg/cm2: 100%
Ctenocephalides felis; 24 h, dose 20.0 µg/cm^2, 1.50 % PBO in composition, 24 hours, read-out: 24 Hour % Mortality
  mortality at 20 µg/cm2: 100%
[2]; dose 1.25 µg/cm^2, 6 hours
  mortality at 1.25 µg/cm2: 0%
[2]; dose 2.50 µg/cm^2, 6 hours
  mortality at 2.5 µg/cm2: 1%
[2]; dose 5.00 µg/cm^2, 6 hours
  mortality at 5 µg/cm2: 7%
[2]; dose 10.0 µg/cm^2, 6 hours
  mortality at 10 µg/cm2: 33%
[2]; dose 20.0 µg/cm^2, 6 hours
  mortality at 20 µg/cm2: 93%
[3]; dose 0.1560 µg/cm^2, 6 hours
  mortality at 0.156 µg/cm2: 0%
[3]; dose 0.3125 µg/cm^2, 6 hours
  mortality at 0.3125 µg/cm2: 5%
[3]; dose 0.625 µg/cm^2, 6 hours
  mortality at 0.625 µg/cm2: 27%
[3]; dose 1.25 µg/cm^2, 6 hours
  mortality at 1.25 µg/cm2: 88%
[3]; dose 2.50 µg/cm^2, 6 hours
  mortality at 2.5 µg/cm2: 98%
[3]; dose 5.00 µg/cm^2, 6 hours
  mortality at 5 µg/cm2: 100%
Dermacentor variabilis; [4]
  mortality at 0.00079 µg/cm2: 100%
  mortality at 0.0079 µg/cm2: 100%
  mortality at 0.079 µg/cm2: 100%
  mortality at 0.79 µg/cm2: 100%
  mortality at 2.36 µg/cm2: 100%
  mortality at 7.86 µg/cm2: 100%
Dermacentor variabilis; [5]
  mortality at 0.00079 µg/cm2: 100%
  mortality at 0.0079 µg/cm2: 100%
  mortality at 0.079 µg/cm2: 100%
  mortality at 0.79 µg/cm2: 100%
  mortality at 2.36 µg/cm2: 100%
  mortality at 7.86 µg/cm2: 100%
